For assay [1] the following is noted: prior art; cited from earlier work.
A further assay concerns Z. bailii. Nature of the assay: Antimicrobial efficacy of emulsions, growth measured by optical density at 600 nm. Type of assay: cell-based, Zygosaccharomyces bailii. The note with it: time course; 45.5 ppm thyme oil and 13 ppm LAE emulsion, or 13 ppm lauric arginate alone; FIG. 4. On the procedure:
Antimicrobial efficacy of emulsions of the invention is assessed by back diluting a mid-log phase, overnight culture of Z. bailii 1:100 into fresh acidified (pH 5) yeast peptone dextrose broth and adding the appropriate concentration of emulsion. Emulsions are prepared and tested in duplicate. Controls of lauric arginate are prepared in the same buffer with corn oil substituted for essential oil, at the same concentration. To test thyme oil alone, ethanol is used as a vehicle to solubilize the thyme oil in the microbiological media.
The antimicrobial efficacy of the formulations was evaluated against the relevant spoilage organism Z. bailii after 72 hours of incubation, as measured by optical density at 600 nm. See FIG. 3 which compares the growth of Z. bailii under differing conditions. Z. bailii was treated to emulsions comprising 52.5 ppm Thyme oil and 15 ppm lauric arginate (LAE); 52.5 ppm Thyme essential oil alone; or 15 ppm lauric arginate alone. […]
Additional studies were conducted in order to ascertain the temporal component of lauric arginate activity. […] Cells are treated to 45.5 ppm Thyme oil and 13 ppm lauric arginate (LAE) emulsion; 45.5 ppm Thyme essential oil alone; or 13 ppm lauric arginate alone, and the OD600 of the cultures were measured over time. […]

Data on three compounds can be found in patent publication US12016340B2, “Synergistic antimicrobial formulation consisting of plant extract and lauric arginate” (KALAMAZOO HOLDINGS, INC., priority 2019, dated 2024).

Regarding `Cc1ccc(C(C)C)c(O)c1` [thymol], the “synergy with lauric arginate” value in assay [1] is on record as “not to possess synergy”.

As for `Cc1ccc(C(C)C)cc1O` [carvacrol], the “level at which synergy with lauric arginate was reported” value in assay [1] is on record as 60 ppm.

In the case of `CCCCCCCCCCCC(=O)N[C@@H](CCCN=C(N)N)C(=O)OCC` [lauric arginate, Lauric arginate], the “growth inhibition over time (OD600)” value with Z. bailii is “not inhibitory”.
